Data: ChEMBL document CHEMBL1208760, “New antifungal peptides. Synthesis, bioassays and initial structure prediction by CD spectroscopy” (2010)

What was measured:
Assay type in all cases: functional
Conditions in all cases: read-out: GI
Candida albicans [1] = test: Antifungal activity against Candida albicans ATCC 10231 assessed as inhibition of fungal growth at 200 uM
Candida albicans [2] = test: Antifungal activity against Candida albicans ATCC 10231 assessed as inhibition of fungal growth at 100 uM
Candida albicans [3] = test: Antifungal activity against Candida albicans ATCC 10231 assessed as inhibition of fungal growth at 50 uM
Candida albicans [4] = test: Antifungal activity against Candida albicans ATCC 10231 assessed as inhibition of fungal growth at 25 uM
Candida albicans [5] = test: Antifungal activity against Candida albicans ATCC 10231 assessed as inhibition of fungal growth at 12.5 uM
Candida albicans [6] = test: Antifungal activity against Candida albicans ATCC 10231 assessed as inhibition of fungal growth at 6.25 uM
Cryptococcus neoformans [7] = test: Antifungal activity against Cryptococcus neoformans ATCC 32264 assessed as inhibition of fungal growth at 200 uM
Cryptococcus neoformans [8] = test: Antifungal activity against Cryptococcus neoformans ATCC 32264 assessed as inhibition of fungal growth at 100 uM
Cryptococcus neoformans [9] = test: Antifungal activity against Cryptococcus neoformans ATCC 32264 assessed as inhibition of fungal growth at 50 uM
Cryptococcus neoformans [10] = test: Antifungal activity against Cryptococcus neoformans ATCC 32264 assessed as inhibition of fungal growth at 25 uM
Cryptococcus neoformans [11] = test: Antifungal activity against Cryptococcus neoformans ATCC 32264 assessed as inhibition of fungal growth at 12.5 uM
Cryptococcus neoformans [12] = test: Antifungal activity against Cryptococcus neoformans ATCC 32264 assessed as inhibition of fungal growth at 6.25 uM

Molecule | inhibition of growth at 200 µM (Candida albicans [1]) [%] | inhibition of growth at 100 µM (Candida albicans [2]) [%] | inhibition of growth at 50 µM (Candida albicans [3]) [%] | inhibition of growth at 25 µM (Candida albicans [4]) [%] | inhibition of growth at 12.5 µM (Candida albicans [5]) [%] | inhibition of growth at 6.25 µM (Candida albicans [6]) [%] | inhibition of growth at 200 µM (Cryptococcus neoformans [7]) [%] | inhibition of growth at 100 µM (Cryptococcus neoformans [8]) [%] | inhibition of growth at 50 µM (Cryptococcus neoformans [9]) [%] | inhibition of growth at 25 µM (Cryptococcus neoformans [10]) [%] | inhibition of growth at 12.5 µM (Cryptococcus neoformans [11]) [%] | inhibition of growth at 6.25 µM (Cryptococcus neoformans [12]) [%]
H-KKWKMRRNQFWIKIQR-NH2 | 100 | 100 | 100 | 25.8 | 12 | 0 | 100 | 100 | 99 | 94.1 | 89.5 | 55.9
CC[C@H](C)[C@H](NC(=O)[C@H](CCCCN)NC(=O)[C@@H](NC(=O)[C@H](CCC(N)=O)NC(=O)[C@H](CCCNC(=N)N)NC(=O)[C@H](Cc1c[nH]c2ccccc12)NC(=O)[C@H](CCCNC(=N)N)NC(=O)[C@H](Cc1ccccc1)NC(=O)[C@@H](N)Cc1cnc[nH]1)[C@@H](C)CC)C(=O)N[C@@H](Cc1c[nH]c2ccccc12)C(=O)N[C@@H](Cc1ccccc1)C(=O)N[C@@H](CCC(N)=O)C(=O)N[C@@H](CC(N)=O)C(=O)N[C@@H](CCCNC(=N)N)C(=O)N[C@@H](CCCNC(=N)N)C(=O)N[C@@H](CCSC)C(=O)N[C@@H](CCCCN)C(=O)N[C@@H](Cc1c[nH]c2ccccc12)C(=O)N[C@@H](CCCCN)C(=O)N[C@@H](CCCCN)C(N)=O | 100 | 100 | 93.4 | 4.86 | 3.85 | 0.9 | 100 | 100 | 87.3 | 85.9 | 74.3 | 51
CC[C@H](C)[C@H](NC(=O)[C@H](CCCCN)NC(=O)[C@@H]1CCCN1C(=O)[C@H](CCC(N)=O)NC(=O)[C@@H](N)CCCNC(=N)N)C(=O)N[C@H](Cc1c[nH]c2ccccc12)C(=O)N[C@@H](Cc1ccccc1)C(=O)N1CCC[C@H]1C(=O)N[C@@H](CC(N)=O)C(=O)N[C@@H](CCCNC(=N)N)C(=O)N[C@@H](CCCNC(=N)N)C(=O)N[C@@H](CCCCN)C(=O)N1CCC[C@H]1C(=O)N[C@@H](Cc1c[nH]c2ccccc12)C(=O)N[C@@H](CCCCN)C(=O)N[C@@H](CCCCN)C(N)=O | 100 | 100 | 41.4 | 15.4 | 6.1 | 0 | 100 | 100 | 100 | 100 | 100 | 79.9
CC(=O)N1CCN(c2ccc(OCC3COC(Cn4ccnc4)(c4ccc(Cl)cc4Cl)O3)cc2)CC1 (configuration not stated) [KETOCONAZOLE] | 100 | 100 | 100 | 100 | 100 | 100 | 100 | 100 | 100 | 100 | 100 | 100
CC[C@H](C)[C@H](NC(=O)[C@H](CCCCN)NC(=O)[C@@H](NC(=O)[C@H](CCC(N)=O)NC(=O)[C@@H](N)CCCNC(=N)N)[C@@H](C)CC)C(=O)N[C@@H](Cc1c[nH]c2ccccc12)C(=O)N[C@@H](Cc1ccccc1)C(=O)N[C@@H](CCC(N)=O)C(=O)N[C@@H](CC(N)=O)C(=O)N[C@@H](CCCNC(=N)N)C(=O)N[C@@H](CCCNC(=N)N)C(=O)N[C@@H](CCSC)C(=O)N[C@@H](CCCCN)C(=O)N[C@@H](Cc1c[nH]c2ccccc12)C(=O)N[C@@H](CCCCN)C(=O)N[C@@H](CCCCN)C(N)=O [PENETRATIN] | 100 | 100 | 95 | 91 | 4 | 0 | 100 | 100 | 100 | 100 | 90 | 60
C[C@@H]1[C@H](O)[C@@H](C)/C=C/C=C/C=C/C=C/C=C/C=C/C=C/[C@H](O[C@@H]2O[C@H](C)[C@@H](O)[C@H](N)[C@@H]2O)C[C@@H]2O[C@](O)(C[C@@H](O)C[C@@H](O)[C@H](O)CC[C@@H](O)C[C@@H](O)CC(=O)O[C@H]1C)C[C@H](O)[C@H]2C(=O)O [AMPHOTERICIN B] | 100 | 100 | 100 | 100 | 100 | 100 | 100 | 100 | 100 | 100 | 100 | 100
